Experimental data reported in publication PMC6316200, “Ceratinadins E and F, New Bromotyrosine Alkaloids from an Okinawan Marine Sponge Pseudoceratina sp” (Marine Drugs, 2018).
Values after ≈ are worked out from the molar mass of the structure shown. Like-named read-outs stand apart in the source and are kept apart here.

Experiments:
[1] = system: Plasmodium falciparum K1 strain; test: Antimalarial activity in vitro against drug-resistant P. falciparum K1 strain; assay type: cell-based; details: for IC50: Plasmodium falciparum; for Selectivity Index MRC-5/K1: ratio of IC50 MRC-5 to IC50 K1
Description: (§1) The antimalarial activities of psammaplysin F (3), ceratinadin E (1), and ceratinadin F (2) against a drug-resistant and a drug-sensitive strains of Plasmodium falciparum (K1 and FCR3 strains, respectively) were examined, see Table 2 [16].

[2] = Cytotoxicity against MRC-5 cells; assay type: cell-based, human
[3] = system: Plasmodium falciparum FCR3 strain; test: Antimalarial activity in vitro against drug-sensitive P. falciparum FCR3 strain; assay type: cell-based; details: for IC50: Plasmodium falciparum; for Selectivity Index MRC-5/FCR3: ratio of IC50 MRC-5 to IC50 FCR3
Description: as §1

[4] = system: MRC-5 (normal human embryonic lung fibroblast); test: Cytotoxicity against MRC-5 cells; assay type: cell-based
[5] = drug-resistant P. falciparum strain K1, in vitro, read-out: Antimalarial Activity K1, IC50
[6] = human, MRC-5 cells (normal human embryonic lung fibroblasts)
[7] = drug-sensitive P. falciparum strain FCR3, in vitro, read-out: Antimalarial Activity FCR3, IC50

Compound: C[C@@H]1CC[C@H]2[C@@H](C)C(=O)O[C@@H]3O[C@@]4(C)CC[C@@H]1[C@]32OO4 [Artemisinin, reference compound]
- IC50 [1, 5]: 0.01 µg/mL (≈ 0.0354 µM)
- Selectivity Index MRC-5/K1 [1]: >1412
- IC50 [2, 6]: > 14.1 µg/mL
- IC50 [3, 7]: 0.0088 µg/mL (≈ 0.0312 µM)
- Selectivity Index MRC-5/FCR3 [3]: >1604.5

Compound: CNCCc1cc(Br)c(OCCCNC(=O)N(C)CCc2cc(Br)c(OCCCNC(=O)C3=NO[C@]4(CC(Br)=C(OC)C(Br)=CO4)[C@@H]3O)c(Br)c2)c(Br)c1 [Ceratinadin E (1), ceratinadin E]
- IC50 [1, 5]: 1.03 µg/mL (≈ 0.904 µM)
- Selectivity Index MRC-5/K1 [1]: 15.5
- IC50 [2, 6]: 16 µg/mL (≈ 14 µM)
- IC50 [3, 7]: 0.77 µg/mL (≈ 0.676 µM)
- Selectivity Index MRC-5/FCR3 [3]: 20.8

Compound: CNCCc1cc(Br)c(OCCCNC(=O)N(C)CCc2cc(Br)c(OCCCNC(=O)N(C)CCc3cc(Br)c(OCCCNC(=O)C4=NO[C@]5(CC(Br)=C(OC)C(Br)=CO5)[C@@H]4O)c(Br)c3)c(Br)c2)c(Br)c1 [Ceratinadin F (2), ceratinadin F]
- antimalarial activity (in words) ([1]; P. falciparum in vitro, strain not named, only K1 examined for this compound): did not show significant antimalarial activity
- IC50 [1, 5]: > 12.5 µg/mL
- Selectivity Index MRC-5/K1 [1]: >4
- IC50 [2, 6]: > 50 µg/mL

Compound: CCN(CC)CCCC(C)Nc1ccnc2cc(Cl)ccc12 (centres unmarked) [Chloroquine, reference compound]
- IC50 ([1]; K1, read-out: Antimalarial Activity K1, IC50): 0.34 µg/mL (≈ 1.06 µM)
- IC50 ([2]; normal human embryonic lung fibroblast): > 25.8 µg/mL
- IC50 ([3]; FCR3, read-out: Antimalarial Activity FCR3, IC50): 0.035 µg/mL (≈ 0.109 µM)

Compound: psammaplysin F [Psammaplysin F (3)]
- Antimalarial Activity K1, IC50 ([1]; drug-resistant P. falciparum strain K1, in vitro): 3.77 µg/mL
- Cytotoxicity MRC-5, IC50 [4]: 12.65 µg/mL
- Antimalarial Activity FCR3, IC50 ([3]; drug-sensitive P. falciparum strain FCR3, in vitro): 2.45 µg/mL
